In US20240166684A1 (priority 2021, published 2024):
Entries after “also recorded” stand apart in the source; their conditions may differ. Read-outs that look alike come from different tables or passages of the source. Non-standard residues stand in square brackets, D forms with d. Residues, ends and D or L forms follow the SMILES beside them. *: point of attachment. Nle = CCCC[C@H](N)C(=O)O; Cbz = O=C(OCc1ccccc1)*

Tests used:
GFAP = assay type: cell-based, human
ATP1A2 = assay type: cell-based, human
ATP1A3 = assay type: cell-based, human
ATP1A1 = assay type: cell-based, human
PrP^C [1] = conditions: for effect of co-incubated inhibitor on ouabain-induced reduction in PrP^C levels: 25 nM ouabain or 20 nM ouabain; for effect on steady-state PrP^C levels: 3-day exposure (FIG. 7), ouabain 20 nM
[2] = cited from earlier work
NKA β subunit = assay type: cell-based, human
HeLa cells = conditions: cited from earlier work
ReN VM cells [3] = conditions: human
[4] = tested on: class III beta tubulin (Tuj-1); assay type: cell-based, human
[5] = mouse, in vivo, sc
PrP^C [6] = conditions: literature screens; cited from earlier work
NKAs [7] = conditions: cited from earlier work
ReN VM cells [8] = assay: cells; assay type: cell-based; conditions: Homo sapiens, 168 h, read-out: concentration at which metabolic activity dropped to 50%
ReN VM cells [9] = assay: cells; assay type: cell-based; conditions: Homo sapiens, 168 h, read-out: cellular toxicity: concentration at which ATP levels drop to 50% of mock-treated control
ReN VM cells [10] = assay: cells; assay type: cell-based, human
[11] = tested on: 5′-ectonucleotidase (5′-NT); assay type: cell-based, human
NKAs [12] = conditions: cited from earlier work; remark: listed apart in the source
NKAs [13] = tested on: NKAs
[14] = differentiated ReN VM cells, one-week exposure

For CCCC[C@@H](C=O)NC(=O)[C@H](CC(C)C)NC(=O)[C@H](CC(C)C)NC(C)=O [A6185, N-acetyl-Leu-Leu-norleucinal] (Ac-Leu-Leu-[Nle]-aldehyde), the “effect on ouabain-induced formation of faster migrating GFAP bands” value (GFAP) was “blocked the excessive formation of faster migrating bands”, the “effect on steady-state ATP1A2 levels” value (ATP1A2) was “diminished” and the “effect on steady-state ATP1A3 levels” value (ATP1A3) was “no apparent effect”. For the same compound, the “effect on steady-state ATP1A1 levels” value (ATP1A1) was “no apparent effect”, the “effect of co-incubated inhibitor on ouabain-induced reduction in PrP^C levels” value (PrP^C [1]) was “did neither prevent” and the “effect on steady-state PrP^C levels” value (PrP^C [1]; ReN VM cells) was “diminished”.

In the case of COC1C[C@H](O[C@H]2CC[C@]3(C)C4CC[C@]5(C)[C@@H](C6=CC(=O)OC6)[C@@H](OC(C)=O)C[C@]5(O)[C@@H]4CC[C@@H]3C2)OC(C)C1=O (stereo partly drawn) [I-3, 4′-dehydro-oleandrin], the “oral effectiveness (oral versus intravenous lethal doses), increase relative to oleandrin” value ([2]; cats) is given as “approximately 20%”, the “oral toxicity relative to oleandrin” value ([2]; in vivo, po) is given as “almost twofold lower” and the “effect on steady-state GFAP levels” value (GFAP) is given as “not paralleled by significant changes”. The “effect of I-3 on steady-state ATP1A2 levels” value (ATP1A2) was “declined as levels of exemplary compound I-3 were increased”, the “concentration at which ATP1A3 levels reach a maximum” value (ATP1A3) was 24 to 32 nM and the “concentration up to which ATP1A3 levels stayed unchanged” value (ATP1A3) was “up to 8 nM”. The “effect on NKA β subunit levels” value (NKA β subunit) was “lesser, yet also pronounced reduction”, the IC50 (HeLa cells) was 46 nM and the “cytotoxicity relative to oleandrin” value (HeLa cells) was “slightly reduced relative to oleandrin”. For the same compound, the “concentration achieving similar reduction in ATP1A1 levels” value (ATP1A1) was 4 nM, the “concentrations causing reduction of steady-state ATP1A1 levels” value (ATP1A1) was “up to 16 nM” and the tolerated concentration (ReN VM cells [3]) was “up to 30 nM”. The toxic concentration (ReN VM cells [3]) was at least 40 nM, the “maximum reduction in steady-state PrP^C levels” value (PrP^C [1]; 12 nM, one week, ReN VM cells) was 84% and the “concentration at which PrP^C signal rebounds / migrates differently in SDS-PAGE” value (PrP^C [1]; [14]) was 20 to 32 nM. For the same compound, the “concentrations causing concentration-dependent reduction of steady-state PrP^C levels” value (PrP^C [1]; [14]) was 4 to 16 nM, the “effect on Tuj-1 levels” value [4] was “not paralleled by significant changes” and the “concentration accumulated in the brain” value [5] was 38.8 nM. The “time of highest levels in heart, kidney and liver” value [5] was 4 h.

In the case of CC(C)C[C@@H](C=O)NC(=O)[C@H](CC(C)C)NC(=O)[C@H](CC(C)C)NC(=O)OCc1ccccc1 [MG132] (Cbz-Leu-Leu-Leu-aldehyde), the “effect of co-incubated inhibitor on ouabain-induced reduction in ATP1A1 levels” value (ATP1A1) is reported as “caused an increase in ATP1A1 steady-state levels” and the “effect of co-incubated inhibitor on ouabain-induced reduction in PrP^C levels” value (PrP^C [1]) is reported as “failed to block”.

For C=CC[C@@H]1/C=C(\C)C[C@H](C)C[C@H](OC)[C@H]2O[C@@](O)(C(=O)C(=O)N3CCCC[C@H]3C(=O)O[C@H](/C(C)=C/[C@@H]3CC[C@@H](O)[C@H](OC)C3)[C@H](C)[C@@H](O)CC1=O)[C@H](C)C[C@@H]2OC [Tacrolimus], the “effective concentrations for reducing PrP^C levels” value (PrP^C [6]) is given as “micromolar”.

In the case of C[C@H]1O[C@@H](O[C@H]2[C@@H](O)C[C@H](O[C@H]3[C@@H](O)C[C@H](O[C@H]4CC[C@@]5(C)[C@H](CC[C@@H]6[C@@H]5C[C@@H](O)[C@]5(C)[C@@H](C7=CC(=O)OC7)CC[C@]65O)C4)O[C@@H]3C)O[C@@H]2C)C[C@H](O)[C@@H]1O [digoxin], the “time to dissociate from NKAs” value (NKAs [7]) is given as 18 h, the IC50 (ReN VM cells [8]) is given as about 50 nM and the IC50 (ReN VM cells [9]) is given as about 25 nM. For the same compound, the “level above which all three measures of cellular health dropped” value (ReN VM cells [3]) was “Above 10 nM”, the “increase of cellular calcium levels” value (ReN VM cells [10]) was “approximately 20%” and the IC50 (ReN VM cells [10]; Homo sapiens, 168 h, read-out: concentration giving half maximum intracellular calcium levels) was 30 nM.

For CC(=O)N[C@@H](CSC(=O)[C@]1([C@@H](O)C(C)C)NC(=O)[C@H](C)[C@@H]1O)C(=O)O [lactacystin], the “effect of co-incubated inhibitor on ouabain-induced reduction in ATP1A1 levels” value (ATP1A1) was “caused an increase in ATP1A1 steady-state levels” and the “effect of co-incubated inhibitor on ouabain-induced reduction in PrP^C levels” value (PrP^C [1]) was “failed to block”.

With COC1C[C@H](O[C@H]2CC[C@]3(C)C4CC[C@]5(C)[C@@H](C6=CC(=O)OC6)[C@@H](OC(C)=O)C[C@]5(O)[C@@H]4CC[C@@H]3C2)OC(C)[C@@H]1O (stereo partly drawn) [oleandrin, acetic acid [(3S,5R,10S,13R,14S,16S,17′R)-14-hydroxy-3-[[(2R,4S,5S,6S)-5-hydroxy-4-methoxy-6-methyl-2-tetrahydropyranyl]oxy]-10,13-dimethyl-17-(5-oxo-2H-furan-3-yl)-1,2,3,4,5,6,7,8,9,11,12,15,16,17-tetradecahydrocyclopenta[a]phenanthren-16-yl] ester] the “concentration achieving similar reduction in ATP1A1 levels” value (ATP1A1) was 4 nM, the “concentration at which ATP1A1 levels rebound / increase” value (ATP1A1) was “around 2 nM” and the tolerated concentration (ReN VM cells [3]) was “up to 2 nM”. The “potency of oleandrin relative to ouabain for similar reduction of ATP1A1 and PrP^C” value (PrP^C [1]; 7-day treatment, differentiated ReN VM cells) was “approximately tenfold higher potency; also recorded: tenfold lower levels”, the “brain levels relative to other organs” value [5] was “lowest in the brain” and the “time of rapid increase in heart, kidney and liver” value [5] was 2 h.

In the case of C[C@@H]1O[C@@H](O[C@H]2C[C@@H](O)[C@]3(CO)[C@H]4[C@H](O)C[C@]5(C)[C@@H](C6=CC(=O)OC6)CC[C@]5(O)[C@@H]4CC[C@]3(O)C2)[C@H](O)[C@H](O)[C@H]1O [ouabain], the “time to dissociate from NKAs” value (NKAs [7]) is given as “less than two hours”, the “effect on GFAP antibody-reactive bands” value (GFAP) is given as “an increase in the intensity levels of bands that were reactive toward GFAP-directed antibodies” and the “effect on steady-state ATP1A2 levels” value (ATP1A2) is given as “reduction”. The “effect on steady-state ATP1A3 levels” value (ATP1A3) was “not affected”, the “effect on steady-state 5′-NT levels” value [11] was “increase” and the “concentration at which ATP1A1 levels rebound / increase” value (ATP1A1) was 50 nM. For the same compound, the “concentrations causing reduction of steady-state ATP1A1 levels” value (ATP1A1) was “up to 30 nM”, the “effect on steady-state ATP1A1 levels” value (ATP1A1) was “reduction” and the “lowest concentration at which ATP1A1 reduction is apparent” value (ATP1A1) was 3 nM. The IC50 (NKAs [12]) was 15 to 41 nM, the “reduction of total 86Rb+ uptake by complete block of NKAs” value (NKAs [13]) was 49% and the “effect on steady-state PrP^C levels” value (PrP^C [1]; ReN VM cells) was “reduction”. The “concentration at which PrP^C signal rebounds / migrates differently in SDS-PAGE” value (PrP^C [1]; [14]) was 50 nM and the “lowest concentration at which PrP^C reduction is apparent” value (PrP^C [1]; [14]) was 3 nM.

With bafilomycin the “effect of co-incubated inhibitor on ouabain-induced reduction in ATP1A1 levels” value (ATP1A1) was “rescued” and the “effect of co-incubated inhibitor on ouabain-induced reduction in PrP^C levels” value (PrP^C [1]) was “rescued”.

In the case of calpastatin, the “effect of co-incubated inhibitor on ouabain-induced reduction in ATP1A1 levels” value (ATP1A1) is reported as “did neither prevent” and the “effect of co-incubated inhibitor on ouabain-induced reduction in PrP^C levels” value (PrP^C [1]) is reported as “did neither prevent”.
